Measurements from patent US6239126A, “Arylpiperidine and aryl-1,2,5,6-tetra-hydropyridine urea derivatives” (American Home Products Corporation, priority 1999, dated 2001).
Read-outs that look alike come from different tables or passages of the source.

Legend:
[1] = biological target: T1, human 5HT1A receptor (Homo sapiens, UniProt P08908); assay: 5-HT1A Receptor Intrinsic Activity Assay, agonist activity (cAMP in forskolin-treated CHO cells stably transfected with the human 5-HT1A receptor); format: cell-based; conditions: read-out: cAMP Emax
T1 construct: expressed in transfected cells; host or cells: CHO cells, stably transfected
T1 sequence (P08908 1-422): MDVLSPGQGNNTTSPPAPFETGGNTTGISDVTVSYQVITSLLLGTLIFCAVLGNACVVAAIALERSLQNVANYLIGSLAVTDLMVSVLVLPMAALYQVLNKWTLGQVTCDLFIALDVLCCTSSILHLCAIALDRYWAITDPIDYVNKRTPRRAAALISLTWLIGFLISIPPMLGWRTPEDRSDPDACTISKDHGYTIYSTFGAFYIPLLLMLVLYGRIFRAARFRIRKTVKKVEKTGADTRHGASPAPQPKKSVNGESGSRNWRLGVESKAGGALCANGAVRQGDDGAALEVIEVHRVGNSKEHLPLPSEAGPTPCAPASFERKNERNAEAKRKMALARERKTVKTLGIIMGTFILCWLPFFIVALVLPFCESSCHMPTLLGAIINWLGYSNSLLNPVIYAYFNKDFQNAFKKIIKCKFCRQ
Protocol: (§1) The intrinsic activity of compounds of the present invention was established by testing the claimed compounds ability to reverse the stimulation of cyclic adenosinemonophosphate (cAMP) in CHO cells stably transfected with the human 5-HT1A receptor.
(§2) Stably transfected CHO cells were grown in DMEM containing 10% heat inactivated FBS and non-essential amino acids. The cells are plated at a density of […] cells per well in a 24 well plate and incubated for 2 days in a CO2 incubator. On the second day, the media is replaced with 0.5 mL treatment buffer (DMEM +25 mM HEPES, 5 mM theophylline, 10 μM pargyline) and incubated for 10 minutes at 37° C. Wells are treated with forskolin (1 μM final concentration) followed immediately by the test compound (0.1 and 1 μM for initial screen) and incubated for an additional 10 minutes at 37° C. The reaction is terminated by removal of the media and addition of 0.5 mL ice cold assay buffer (supplied in the RIA kit). Plates are stored at -20° C. prior to assessment of cAMP formation by RIA. EC50 values are determined for the active test compounds. Compounds shown to have no agonist activities (Emax=0%) are further analyzed for their ability to reverse agonist induced activity. In separate experiments, 6 concentrations of antagonist are preincubated for 20 minutes prior to the addition of agonist and forskolin. Cells are harvested as described above. The cAMP kit is supplied by Amershan and the RIA is performed as per kit instructions, and calculations of IC50 performed by GraphPad Prism.

[2] = biological target: T1, human 5HT1A receptor; assay: 5-HT1A Receptor Binding Assay (displacement of [^3 H] 8-OH-DPAT binding in CHO cells stably transfected with human 5HT1A receptor)
Protocol: High affinity for the serotonin 5-HT1A receptor was established by testing a compound's ability to displace [^3 H] 8-OH-DPAT binding in CHO cells stably transfected with human 5HT1A receptor. Stably transfected CHO cells are grown in DMEM containing 10% heat inactivated FBS and non-essential amino acids. Cells are scraped off the plate, transferred to centrifuge tubes, and washed twice by centrifugation (2000 rpm for 10 min., 4° C.) in buffer (50 mM Tris pH 7.5). The resulting pellets are aliquoted and placed at -80° C. On the day of assay, the cells are thawed on ice and resuspended in buffer. The binding assay is performed in a 96 well microtiter plate in a total volume of 250 μL. Non-specific binding is determined in the presence of […] 5-HT, final ligand concentration is 1.5 nM. Following a 30 minute incubation at room temperature, the reaction is terminated by the addition of ice cold buffer and rapid filtration through a GF/B filter presoaked for 30 minutes in 0.5% PEI. Compounds are initially tested in a single point assay to determine percent inhibition at […], and Ki values are determined for the active compounds.

[3] = biological target: T1, human 5HT1A receptor; assay: 5-HT1A Receptor Intrinsic Activity Assay, ability to reverse agonist induced activity (cAMP, CHO cells stably transfected with the human 5-HT1A receptor); format: cell-based; conditions: reversal of agonist induced activity; 6 concentrations of antagonist preincubated 20 minutes prior to agonist and forskolin
Protocol: as §1
as §2, with “The cAMP kit is supplied by Amershan and the RIA is performed as per kit instructions, and calculations of IC50 performed by GraphPad Prism.” left out

[4] = agonist activity, forskolin 1 μM, CHO cells, 10 minutes at 37° C.
[5] = [^3 H] 8-OH-DPAT 1.5 nM, CHO cells, 30 minute incubation at room temperature, read-out: 5-HT1A binding Ki

IC50 [3] [nM]	Emax [1, 4] [%]	Ki [2, 5] [nM]	SMILES	Emax ([1]; CHO) [%]	Ki [2] [nM]
			COc1ccc(F)cc1C1=CCN(C[C@@H](Cc2ccccc2)N(C)C(=O)N2CCOCC2)CC1 [Example 2, Morpholine-4-carboxylic acid {(1R)-1-benzyl-2-[4-(5-fluoro-2-methoxy-phenyl)-1,2,5,6-tetrahydro-4H-pyridin-1-yl]-ethyl}-methyl-amide]	0	26.6
46.9	0	3.5	COc1ccc(F)cc1C1CCN(C[C@@H](Cc2ccccc2)N(C)C(=O)NC2CCCCC2)CC1 [Example 1, 1-{(1R)-1-Benzyl-2-[4-(5-fluoro-2-methoxyphenyl)-piperidin-1-yl]-ethly}-1-3-cyclohexyl-1-methyl-urea]		
12.6	0	3.5	COc1ccc(F)cc1C1=CCN(C[C@@H](Cc2ccccc2)N(C)C(=O)NC2CCCCC2)CC1 [Example 3, 1-{(1R)-1-Benzyl-2-[4-(5-fluoro-2-methoxy-phenyl)-1,2,5,6-tetrahydro-4H-pyridin-1-yl]-ethyl-}-3-cyclohexyl-1-methyl-urea]		
